Test results from patent US10793542B2, “Hetroarylamine compounds for modulating the hedgehog pathway and preparing method and uses thereof” (DEVELOPMENT CENTER FOR BIOTECHNOLOGY, priority 2016, dated 2020).

Tests used:
Type in all cases: cell-based
[1] = molecular target: T1, Smo wild type (Homo sapiens, UniProt Q99835); experiment: Reporter assay of C3H10T1/2-Gli-Luc cells transfected with wild-type Smo, without SAG; settings: C3H10T1/2 cells transfected with pLPCX-SMO, no SAG, 48 hr; read-out: Inhibition of C3H10T1/2-Gli-Luc-Smo-WT [IC50
T1 construct: expressed in transfected cells; host or cells: C3H10T1/2 cells (ATCC CCL-226), transient transfection with pLPCX-SMO
In short: (§1)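 C3H10T1/2-Gli-Luc cells transiently transfected with wild-type or D473H SMO, replated in 0.5% FBS RPMI and incubated with compounds 48 h at 37 °C without SAG. Dual-luciferase, firefly normalized to Renilla; scaled to DMSO (100%) and 10 μM ALLO-2 (0%); IC50 by nonlinear regression.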

[2] = test system: hedgehog pathway (pGL3-7xGli-Luciferase reporter in C3H10T1/2 cells); experiment: Transient transfection of C3H10T1/2 and Gli-Luc reporter assay with SAG stimulation; settings: Mus musculus, C3H 10T1/2, SAG 20 nM, 48 hr, read-out: Inhibition of Gli-Luc expression [IC50
In short: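 C3H10T1/2 cells were transiently transfected with a 7xGli-firefly luciferase reporter and a TK-Renilla control, then treated with serially diluted compounds plus 20 nM SAG in 0.5% FBS for 48 h at 37 °C. Firefly signal was normalized to Renilla and scaled between DMSO with SAG (100%) and without SAG (0%). IC50 was obtained by nonlinear regression.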

[3] = molecular target: T2, Smo D473H mutant (Homo sapiens, UniProt Q99835, D473H); experiment: Reporter assay of C3H10T1/2-Gli-Luc cells transfected with Smo D473H mutant, without SAG; settings: C3H10T1/2 cells transfected with pLPCX-SMO-D473H, no SAG, 48 hr; read-out: Inhibition of C3H10T1/2-Gli-Luc-Smo-D473H [IC50
T2 construct: expressed in transfected cells; host or cells: C3H10T1/2 cells (ATCC CCL-226), transient transfection with pLPCX-SMO-D473H
In short: as §1

T1 sequence (Q99835 28-787): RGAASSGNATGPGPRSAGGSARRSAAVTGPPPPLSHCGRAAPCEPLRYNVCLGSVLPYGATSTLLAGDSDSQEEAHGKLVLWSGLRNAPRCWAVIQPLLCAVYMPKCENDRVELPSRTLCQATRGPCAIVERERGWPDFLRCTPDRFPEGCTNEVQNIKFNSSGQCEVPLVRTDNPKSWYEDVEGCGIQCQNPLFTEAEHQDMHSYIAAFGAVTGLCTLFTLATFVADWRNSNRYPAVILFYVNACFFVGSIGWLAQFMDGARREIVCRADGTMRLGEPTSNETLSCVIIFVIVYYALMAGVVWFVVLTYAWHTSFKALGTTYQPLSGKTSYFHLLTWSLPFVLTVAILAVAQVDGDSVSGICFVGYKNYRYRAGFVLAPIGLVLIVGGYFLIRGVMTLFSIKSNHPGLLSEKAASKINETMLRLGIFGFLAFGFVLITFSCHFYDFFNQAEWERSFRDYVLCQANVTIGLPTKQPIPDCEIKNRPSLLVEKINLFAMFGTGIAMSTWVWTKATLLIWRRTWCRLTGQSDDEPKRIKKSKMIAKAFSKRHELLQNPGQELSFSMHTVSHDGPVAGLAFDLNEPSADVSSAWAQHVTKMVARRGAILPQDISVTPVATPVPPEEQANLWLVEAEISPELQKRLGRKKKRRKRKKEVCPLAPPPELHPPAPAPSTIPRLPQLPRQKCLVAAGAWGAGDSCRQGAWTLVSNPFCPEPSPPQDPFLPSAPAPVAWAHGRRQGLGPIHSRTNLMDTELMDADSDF
T2 sequence (Q99835 28-787 D473H): as the sequence (Q99835 28-787) above, with D446H counted along it

Row | SMILES | IC50 [1] | IC50 [2] | IC50 [3]
1 | COc1cccc(OC)c1NC(=O)c1ccc(Nc2ncc(SC)c(-c3cccnc3F)n2)c(F)c1 [Compound 13, N-(2,6-Dimethoxy-phenyl)-3-fluoro-4-[4-(2-fluoro-pyridin-3-yl)-5-methylsulfanyl-pyrimidin-2-ylamino]-benzamide] | 100 to 1000 nM | 100 to 1000 nM | 100 to 1000 nM
2 | CCOc1ccc(-c2nc(Nc3ccc(C(=O)Nc4ccc(Cl)c(C(F)(F)F)c4)cc3)ncc2SC)cn1 [Compound 7, N-(4-Chloro-3-trifluoromethyl-phenyl)-4-[4-(6-ethoxy-pyridin-3-yl)-5-methylsulfanyl-pyrimidin-2-ylamino]-benzamide] | 100 to 1000 nM | 100 to 1000 nM | 100 to 1000 nM
3 | COc1cccc(C)c1NC(=O)c1ccc(Nc2ncc(SC)c(-c3ccc(OC(F)(F)F)cc3)n2)cc1 [Compound 25, N-(2-Methoxy-6-methyl-phenyl)-4-[5-methylsulfanyl-4-(4-trifluoromethoxy-phenyl)-pyrimidin-2-ylamino]-benzamide] | 100 to 1000 nM | 100 to 1000 nM | 100 to 1000 nM
4 | CSc1cnc(Nc2ccc(C(=O)Nc3ccccc3C)cc2F)nc1-c1cccnc1F [Compound 16, 3-Fluoro-4-[4-(2-fluoro-pyridin-3-yl)-5-methylsulfanyl-pyrimidin-2-ylamino]-N-o-tolyl-benzamide] | 100 to 1000 nM | 100 to 1000 nM | 100 to 1000 nM
5 | CSc1cnc(Nc2ccc(C(=O)Nc3ccccc3C)cc2)nc1-c1ccccc1 [Compound 19, 4-(5-Methylsulfanyl-4-phenyl-pyrimidin-2-ylamino)-N-o-tolyl-benzamide] | 100 to 1000 nM | 100 to 1000 nM | 100 to 1000 nM
6 | CSc1cnc(Nc2ccc(C(=O)Nc3c(F)cccc3F)cc2)nc1-c1cccnc1F [Compound 8, N-(2,6-Difluoro-phenyl)-4-[4-(2-fluoro-pyridin-3-yl)-5-methylsulfanyl-pyrimidin-2-ylamino]-benzamide] | 100 to 1000 nM | 100 to 1000 nM | 100 to 1000 nM
7 | CSc1cnc(Nc2ccc(C(=O)Nc3cc(CN4CCN(C)CC4)ccc3C)cc2)nc1-c1ccc(F)cc1 [Compound 36, 4-[4-(4-Fluoro-phenyl)-5-methylsulfanyl-pyrimidin-2-ylamino]-N-[2-methyl-5-(4-methyl-piperazin-1-ylmethyl)-phenyl]-benzamide] | < 100 nM | < 100 nM | 100 to 1000 nM
8 | CSc1cnc(Nc2ccc(C(=O)Nc3cc(CN4CCN(C)CC4)ccc3C)cc2F)nc1-c1cnn(C)c1 [Compound 46, 3-Fluoro-N-[2-methyl-5-(4-methyl-piperazin-1-ylmethyl)-phenyl]-4-[4-(1-methyl-1H-pyrazol-4-yl)-5-methylsulfanyl-pyrimidin-2-ylamino]-benzamide] | < 100 nM | < 100 nM | 100 to 1000 nM
9 | CSc1cnc(Nc2ccc(C(=O)Nc3c(C)cccc3C)cc2)nc1-c1ccc(F)cc1 [Compound 29, N-(2,6-Dimethyl-phenyl)-4-[4-(4-fluoro-phenyl)-5-methylsulfanyl-pyrimidin-2-ylamino]-benzamide] | 100 to 1000 nM | 100 to 1000 nM | 100 to 1000 nM
10 | CSc1cnc(Nc2ccc(C(=O)Nc3c(C)cccc3C)cc2)nc1-c1cccnc1F [Compound 6, N-(2,6-Dimethyl-phenyl)-4-[4-(2-fluoro-pyridin-3-yl)-5-methylsulfanyl-pyrimidin-2-ylamino]-benzamide] | < 100 nM | < 100 nM | < 100 nM
11 | CSc1cnc(Nc2ccc(C(=O)Nc3cc(CN4CCOCC4)ccc3C)cc2)nc1-c1ccc(OC(F)(F)F)cc1 [Compound 24, N-(2-Methyl-5-morpholin-4-ylmethyl-phenyl)-4-[5-methylsulfanyl-4-(4-trifluoromethoxy-phenyl)-pyrimidin-2-ylamino]-benzamide] | < 100 nM | < 100 nM | < 100 nM
12 | CSc1cnc(Nc2ccc(C(=O)Nc3cc(CN4CCOCC4)ccc3F)cc2F)nc1-c1ccc(OC(F)(F)F)cc1 [Compound 55, 3-Fluoro-N-(2-fluoro-5-morpholin-4-ylmethyl-phenyl)-4-[5-methylsulfanyl-4-(4-trifluoromethoxy-phenyl)-pyrimidin-2-ylamino]-benzamide] | < 100 nM | < 100 nM | < 100 nM
13 | CCN(CC)Cc1ccc(C)c(NC(=O)c2ccc(Nc3ncc(OC)c(-c4ccc(C#N)cc4)n3)cc2)c1 [Compound 50, 4-[4-(4-Cyano-phenyl)-5-methoxy-pyrimidin-2-ylamino]-N-(5-diethylaminomethyl-2-methyl-phenyl)-benzamide] | < 100 nM | < 100 nM | 100 to 1000 nM

Second part, the compound after the results:

Row | IC50 [1] | IC50 [2] | IC50 [3] | SMILES
14 | < 100 nM | < 100 nM | < 100 nM | CSc1cnc(Nc2ccc(C(=O)Nc3cccc(CN4CCOCC4)c3)cn2)nc1-c1ccc(OC(F)(F)F)cc1 [Compound 64, 6-[5-Methylsulfanyl-4-(4-trifluoromethoxy-phenyl)-pyrimidin-2-ylamino]-N-(3-morpholin-4-ylmethyl-phenyl)-nicotinamide]
15 | < 100 nM | < 100 nM | 100 to 1000 nM | CSc1cnc(Nc2ccc(C(=O)Nc3cc(CN4CCN(C)CC4)ccc3C)cc2)cc1-c1ccc(F)cc1 [Compound 89, 4-((4-(4-fluorophenyl)-5-(methylthio)pyridin-2-yl)amino)-N-(2-methyl-5-((4-methylpiperazin-1-yl)methyl)phenyl)benzamide]
16 | < 100 nM | < 100 nM | 100 to 1000 nM | CCN(CC)Cc1ccc(C)c(NC(=O)c2ccc(Nc3ncc(SC)c(-c4ccc(F)cc4)n3)cc2)c1 [Compound 47, N-(5-Diethylaminomethyl-2-methyl-phenyl)-4-[4-(4-fluoro-phenyl)-5-methylsulfanyl-pyrimidin-2-ylamino]-benzamide]
17 | < 100 nM | < 100 nM | < 100 nM | COc1cnc(Nc2ccc(C(=O)Nc3cc(CN4CCOCC4)ccc3C)cc2F)nc1-c1ccc(F)cc1 [Compound 60, 3-Fluoro-4-[4-(4-fluoro-phenyl)-5-methoxy-pyrimidin-2-ylamino]-N-(2-methyl-5-morpholin-4-ylmethyl-phenyl)-benzamide]
18 | < 100 nM | < 100 nM | < 100 nM | Cc1ccc(CN2CCOCC2)cc1NC(=O)c1ccc(Nc2ncc(N)c(-c3ccc(OC(F)(F)F)cc3)n2)cc1 [Compound 88, 4-((5-amino-4-(4-(trifluoromethoxy)phenyl)pyrimidin-2-yl)amino)-N-(2-methyl-5-(morpholinomethyl)phenyl)benzamide]
19 | < 100 nM | < 100 nM | 100 to 1000 nM | CCOc1cnc(Nc2ccc(C(=O)Nc3cc(CN(CC)CC)ccc3C)cc2)nc1-c1ccc(OC(F)(F)F)cc1 [Compound 74, N-(5-Diethylaminomethyl-2-methyl-phenyl)-4-[5-ethoxy-4-(4-trifluoromethoxy-phenyl)-pyrimidin-2-ylamino]-benzamide]
20 | < 100 nM | < 100 nM | < 100 nM | CSc1cnc(Nc2ccc(C(=O)Nc3cc(CN4CCOCC4)ccc3F)cc2)nc1-c1ccc(OC(F)(F)F)cc1 [Compound 70, N-(2-Fluoro-5-morpholin-4-ylmethyl-phenyl)-4-[5-methylsulfanyl-4-(4-trifluoromethoxy-phenyl)-pyrimidin-2-ylamino]-benzamide]
21 | < 100 nM | < 100 nM | 100 to 1000 nM | COc1cccc(OC)c1NC(=O)c1ccc(Nc2ncc(SC)c(-c3ccccc3)n2)cc1 [Compound 21, N-(2,6-Dimethoxy-phenyl)-4-(5-methylsulfanyl-4-phenyl-pyrimidin-2-ylamino)-benzamide]
22 | < 100 nM | < 100 nM | 100 to 1000 nM | CSc1cnc(Nc2ccc(C(=O)Nc3cccc(CN4CCOCC4)c3)cc2)nc1-c1ccc(F)cc1 [Compound 43, 4-[4-(4-Fluoro-phenyl)-5-methylsulfanyl-pyrimidin-2-ylamino]-N-(3-morpholin-4-ylmethyl-phenyl)-benzamide]
23 | < 100 nM | < 100 nM | < 100 nM | CSc1cnc(Nc2ccc(C(=O)Nc3cc(CN4CCOCC4)ccc3F)cc2)nc1-c1ccc(F)cc1 [Compound 71, N-(2-Fluoro-5-morpholin-4-ylmethyl-phenyl)-4-[4-(4-fluoro-phenyl)-5-methylsulfanyl-pyrimidin-2-ylamino]-benzamide]
24 | < 100 nM | < 100 nM | 100 to 1000 nM | CSc1cnc(Nc2ccc(C(=O)Nc3cc(CN4CCN(C)CC4)ccc3C)cc2)nc1-c1ccc(OC(F)(F)F)cc1 [Compound 37, N-[2-Methyl-5-(4-methyl-piperazin-1-ylmethyl)-phenyl]-4-[5-methylsulfanyl-4-(4-trifluoromethoxy-phenyl)-pyrimidin-2-ylamino]-benzamide]
25 | < 100 nM | < 100 nM | 100 to 1000 nM | COc1cccc(OC)c1NC(=O)c1ccc(Nc2ncc(SC)c(-c3cccnc3F)n2)cc1 [Compound 9, N-(2,6-Dimethoxy-phenyl)-4-[4-(2-fluoro-pyridin-3-yl)-5-methylsulfanyl-pyrimidin-2-ylamino]-benzamide]
